# According to patent US20250230193A1, “CYCLIC COMPOUND HAVING SELECTIVE KRAS INHIBITORY EFFECT ON HRAS AND NRAS” (CHUGAI SEIYAKU KABUSHIKI KAISHA, priority 2022, published 2025):
# *1 amine or outer side, *2 acyl side, *3 side chain or, on linkers, in order; H or OH if unused. Where a SMILES comes first, the peptide text is derived from it. Bridges are numbered along the chain shown (N, C = ends). [ ]: non-standard residue; d: D form. The star is where a group is joined. hPhe(3-Cl-4-CF3) = N[C@@H](CCc1ccc(C(F)(F)F)c(Cl)c1)C(=O)O; X23 = CC(C)CN([C@@H](Cc1ccc(C(F)(F)F)cc1)C(=O)[*:2])[*:1]; NPrPhe(4-CF3) = CCCN[C@@H](Cc1ccc(C(F)(F)F)cc1)C(=O)O; X44 = CCCN([C@@H](Cc1ccccc1)C(=O)[*:2])[*:1]; NMeGly(cPent) = CN[C@H](C(=O)O)C1CCCC1; Hyp = O=C(O)[C@@H]1C[C@@H](O)CN1; NMeD = CN[C@@H](CC(=O)O)C(=O)O; NMeL = CN[C@@H](CC(C)C)C(=O)O; Morpholide = C1CN(*)CCO1; NMeA = CN[C@@H](C)C(=O)O; Ac5c = NC1(C(=O)O)CCCC1; Aze = O=C(O)[C@@H]1CCN1; Ac4c = NC1(C(=O)O)CCC1; Sar = CNCC(=O)O
# Columns and labels:
# [1] = target: GDP-bound NRAS wild-type protein (Homo sapiens, UniProt P01111); assay: Binding to NRAS by surface plasmon resonance (SPR), Single Cycle Kinetics
# GDP-bound NRAS wild-type protein, sequence (P01111 whole entry): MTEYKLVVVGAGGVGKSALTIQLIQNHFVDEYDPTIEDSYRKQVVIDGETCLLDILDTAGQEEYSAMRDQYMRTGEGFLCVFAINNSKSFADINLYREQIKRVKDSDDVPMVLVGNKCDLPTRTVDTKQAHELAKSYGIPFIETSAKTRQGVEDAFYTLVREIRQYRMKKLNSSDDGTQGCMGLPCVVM
# [2] = target: GDP-bound HRAS wild-type protein (Homo sapiens, UniProt P01112); assay: Binding to HRAS by surface plasmon resonance (SPR), Single Cycle Kinetics
# GDP-bound HRAS wild-type protein, sequence (P01112 whole entry): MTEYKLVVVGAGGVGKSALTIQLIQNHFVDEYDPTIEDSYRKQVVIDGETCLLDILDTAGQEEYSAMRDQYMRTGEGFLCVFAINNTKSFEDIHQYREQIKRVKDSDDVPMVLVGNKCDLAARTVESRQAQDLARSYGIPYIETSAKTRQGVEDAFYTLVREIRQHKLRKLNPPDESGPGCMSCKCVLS
# [3] = SPR, GDP-bound NRAS wild-type vs GDP-bound KRAS wild-type
# [4] = SPR, GDP-bound HRAS wild-type vs GDP-bound KRAS wild-type
Structure (SMILES),NRAS/KRAS (ratio of KD for GDP-bound NRAS wild-type to KD for KRAS) ([1]; SPR),HRAS/KRAS (ratio of KD for GDP-bound HRAS wild-type to KD for KRAS) ([2]; SPR),"NRAS/KRAS (ratio of KD value with respect to NRAS to KD value with respect to KRAS) [1, 3]","HRAS/KRAS (ratio of KD value with respect to HRAS to KD value with respect to KRAS) [2, 4]",also measured
CCCN1C(=O)[C@@H]2CCN2C(=O)[C@H](C)N(C)C(=O)[C@H]([C@@H](C)CC)NC(=O)[C@H](CC(C)C)N(C)C(=O)C[C@@H](C(=O)N2CCOCC2)N(C)C(=O)[C@H](C2CCCC2)N(C)C(=O)C2(CCCC2)NC(=O)[C@@H]2CCCN2C(=O)[C@H](CCc2ccc(C(F)(F)F)c(Cl)c2)NC(=O)CN(C)C(=O)[C@@H]1Cc1ccccc1 [PP0216] ([NMeL]I[NMeA][Aze][X44][Sar][hPhe(3-Cl-4-CF3)]P[Ac5c][NMeGly(cPent)][NMeD]-Morpholide; lactam N-11),C (A compound having a KD ratio of 0.1 or more and less than 3 is denoted as C),B (a compound having 3 or more and less than 10 is denoted as B),,,
CCO[C@@H]1C[C@H]2C(=O)NC3(CCC3)C(=O)N(C)[C@@H](C3CCCC3)C(=O)N(CCc3ccccc3)[C@H](C(=O)N(C)C)CC(=O)N(C)[C@@H](CC)C(=O)N[C@@H]([C@@H](C)CC)C(=O)N(C)CC(=O)N(C)[C@H]3CCCCCN(C3=O)[C@@H](Cc3ccc(C(F)(F)F)cc3)C(=O)N(C)CC(=O)N[C@@H](CCc3cc(F)c(C(F)(F)F)c(F)c3)C(=O)N2C1 [PP0637],,,,,NRAS/KRAS (ratio of KD value with respect to GDP-bound NRAS wild-type protein to KD value with respect to KRAS) ([1]; SPR): B (a compound having 3 or more and less than 10 is denoted as B); HRAS/KRAS (ratio of KD value with respect to GDP-bound HRAS wild-type protein to KD value with respect to KRAS) ([2]; SPR): B (a compound having 3 or more and less than 10 is denoted as B)
CCO[C@@H]1C[C@H]2C(=O)NC3(CCC3)C(=O)N(C)[C@@H](C3CCCC3)C(=O)N(C)[C@H](C(=O)N(C)CC)CC(=O)N(C)[C@H]3CCCCCCc4ccc(cc4)C[C@@H](C(=O)N(C)CC(=O)N[C@@H](CCc4ccc(C(F)(F)F)c(OC)c4)C(=O)N2C1)N1CC/C=C\C[C@@H](C1=O)N(C)C(=O)CN(C)C(=O)[C@H]([C@@H](C)CC)NC3=O [PP2263],,,A (a compound having 10 or more and less than 20 is denoted as A),A (a compound having 10 or more and less than 20 is denoted as A),
CCC[C@H]1C(=O)N[C@@H]([C@@H](C)CC)C(=O)N2CCC[C@H]2C(=O)N(C)[C@H]2C/C=C\CCN(C2=O)[C@@H](CC2CCCCC2)C(=O)N(C)CC(=O)N[C@@H](CCc2ccc(C(F)(F)F)c(OC)c2)C(=O)N2C[C@H](OCC)C[C@H]2C(=O)N(C)C2(CCC2)C(=O)N(C)[C@@H](C(CC)CC)C(=O)N(C)[C@H](C(=O)N(C)C)CC(=O)N1C [PP2341],,,A (a compound having 10 or more and less than 20 is denoted as A),A (a compound having 10 or more and less than 20 is denoted as A),
CC[C@H](C)[C@@H]1NC(=O)[C@H](CC(C)C)N(C)C(=O)C[C@@H](C(=O)N2CCOCC2)N(C)C(=O)[C@H](C2CCCC2)N(C)C(=O)C2(CCCC2)NC(=O)[C@@H]2CCCN2C(=O)[C@H](CCc2ccc(C(F)(F)F)c(Cl)c2)NC(=O)CN(C)C(=O)[C@H](Cc2ccc(C(F)(F)F)cc2)N(CC(C)C)C(=O)[C@@H]2CCN2C(=O)[C@H](C)N(C)C1=O [PP0107] ([NMeL]I[NMeA][Aze][X23][Sar][hPhe(3-Cl-4-CF3)]P[Ac5c][NMeGly(cPent)][NMeD]-Morpholide; lactam N-11),C (A compound having a KD ratio of 0.1 or more and less than 3 is denoted as C),C (A compound having a KD ratio of 0.1 or more and less than 3 is denoted as C),,,
CC[C@H](C)[C@@H]1NC(=O)[C@H](C)N(C)C(=O)C[C@@H](C(=O)N(C)C)N(C)C(=O)[C@H](C2CCCC2)N(C)C(=O)C2(CCC2)NC(=O)[C@@H]2CCCN2C(=O)[C@H](CCc2cc(F)c(C(F)(F)F)c(F)c2)NC(=O)CN(C)C(=O)[C@H](Cc2ccc(C(F)(F)F)cc2)N2CCCC[C@@H](C2=O)N(C)C(=O)CN(C)C1=O [PP0581],,,,,NRAS/KRAS (ratio of KD value with respect to GDP-bound NRAS wild-type protein to KD value with respect to KRAS) ([1]; SPR): C (A compound having a KD ratio of 0.1 or more and less than 3 is denoted as C); HRAS/KRAS (ratio of KD value with respect to GDP-bound HRAS wild-type protein to KD value with respect to KRAS) ([2]; SPR): B (a compound having 3 or more and less than 10 is denoted as B)
CCC(CC)[C@H]1C(=O)N(C)[C@H](C(=O)N(C)C)CC(=O)N(C)[C@@H](COC)C(=O)N[C@@H]([C@@H](C)CC)C(=O)N(C2CC2)CC(=O)N(C)[C@H]2C/C=C\CCN(C2=O)[C@@H](CC2CCC(F)(F)CC2)C(=O)N(C)CC(=O)N[C@@H](CCc2cc(F)c(C(F)(F)F)c(F)c2)C(=O)N2C[C@H](OC3CCC3)C[C@H]2C(=O)NC2(CC(C)(C)C2)C(=O)N1C [PP2615],,,,,NRAS/KRAS (ratio of KD value with respect to GDP-bound NRAS wild-type protein to KD value with respect to KRAS) ([1]; class symbols): A (a compound having 10 or more and less than 20 is denoted as A); HRAS/KRAS (ratio of KD value with respect to GDP-bound HRAS wild-type protein to KD value with respect to KRAS) ([2]; class symbols): A (a compound having 10 or more and less than 20 is denoted as A)
CCCN1C(=O)CN(C)C(=O)CN(C)C(=O)[C@H]([C@@H](C)CC)NC(=O)[C@H](CC(C)C)N(C)C(=O)C[C@@H](C(=O)N2CCOCC2)NC(=O)[C@H](C2CCCC2)N(C)C(=O)C2(CCC2)NC(=O)[C@@H]2C[C@@H](OCC)CN2C(=O)[C@H](CCc2ccc(C(F)(F)F)c(Cl)c2)NC(=O)CN(C)C(=O)[C@@H]1Cc1ccc(C(F)(F)F)cc1 [PP0324] ([NMeL]I[Sar][Sar][NPrPhe(4-CF3)][Sar][hPhe(3-Cl-4-CF3)][Hyp](Et)[Ac4c][NMeGly(cPent)]D-Morpholide; lactam N-11),B (a compound having 3 or more and less than 10 is denoted as B),B (a compound having 3 or more and less than 10 is denoted as B),,,
CCCOC[C@H]1C(=O)N[C@@H]([C@@H](C)CC)C(=O)N(C)CC(=O)N(C)[C@H]2C/C=C\CCN(C2=O)[C@@H](Cc2ccc(C(F)(F)F)cc2)C(=O)N(C)CC(=O)N[C@@H](CCc2cc(F)c(C(F)(F)F)c(F)c2)C(=O)N2C[C@H](OCC)C[C@H]2C(=O)NC2(CC(F)(F)C2)C(=O)N(C)[C@@H](C2CCCC2)C(=O)N(C)[C@H](C(=O)N(C)CCC)CC(=O)N1C [PP1744],,,,,"NRAS/KRAS (ratio of KD value for NRAS to KD value for KRAS) ([1]; KD ratio, GDP-bound NRAS wild-type vs GDP-bound KRAS wild-type, SPR): A (a compound having 10 or more and less than 20 is denoted as A); HRAS/KRAS (ratio of KD value for HRAS to KD value for KRAS) ([2]; KD ratio, GDP-bound HRAS wild-type vs GDP-bound KRAS wild-type, SPR): A (a compound having 10 or more and less than 20 is denoted as A)"
CCOC[C@H]1C(=O)N[C@@H]([C@@H](C)CC)C(=O)N(C)CC(=O)N(C)[C@H]2C/C=C\CCN(C2=O)[C@@H](CC2CCCCC2)C(=O)N(C)CC(=O)N[C@@H](CCc2cc(F)c(C(F)(F)F)c(F)c2)C(=O)N2C[C@H](OCC)C[C@H]2C(=O)NC2(CC(C)(C)C2)C(=O)N(C)[C@@H](C(CC)CC)C(=O)N(C)[C@H](C(=O)N(C)C)CC(=O)N1C [PP2479],,,AA (a compound having 20 or more is denoted as AA),A (a compound having 10 or more and less than 20 is denoted as A),
